Results published in US20080268492A1, “Methods for Determining Optimal Techniques for Vitrification of Isolated Cells” (THE CURATORS OF THE UNIVERSITY OF MISSOURI, priority 2007, published 2008).
Like-named read-outs stand apart in the source and are kept apart here. Each block holds one compound with its values, some of them ahead of it.

Columns and labels:
[1] = test system: mouse oocytes; details: cited from earlier work
[2] = test system: Rhesus macaque oocytes; details: single-step addition and removal; cited from earlier work
[3] = test system: mature (MII) human oocytes
Protocol: Measurements of oocyte permeability were conducted at different temperatures on an inverted microscope (Leica DMIRB, China). Perfusion of the oocytes was performed as previously described and validated in the laboratory Oocytes were placed in 20 μl drops of Hepes-HTF (Irvine Scientific) with 10% SSS in a petri dish covered with mineral oil (Vitrolife; Englewood, Colo., USA) to prevent evaporation. An initial photograph was taken of the oocyte in order to calculate the initial volume. […] When the perfusate merged with the 20 μl drop of base medium, photographs of the oocytes were taken at regular intervals.
The oocytes were held in place during the experiment using a glass holding pipette (Humagen Holding MPH-MED-30, I.D.-20 μm, O.D.-95˜120 μm) and micromanipulators (#RI MODEL SAS11/2-E, Integra Research Instruments, UK). For temperatures lower than ambient, a 35 mm Petri dish (Falcon 35-1008) was placed in an aluminum chamber that was cooled with circulating liquid via a cooling bath (Fisher model 9109) and pumped through the aluminum chamber using polymer tubing. The bottom of the dish was wrapped in aluminum foil and a square hole was cut in the foil to facilitate viewing the oocyte. This was performed so the dish would fit snugly in the chamber to facilitate heat transfer from the chamber to the dish. The temperature in the cooling bath was set to either −2° C. or +7° C. for the 2 cold temperatures. The actual temperature of the media in the dish was warmer than this due to heat exchange of the fluid as it circulated through the tubing and chamber.
For the third treatment, oocyte permeability was measured at ambient temperature (˜25° C.) where the perfusion took place in a 50 mm Petri dish (Falcon 35-1006) placed on the microscope stage with no heating or cooling. Finally, the warmest temperature was attained in a similar fashion but the temperature of the media was raised by using a microscope stage warmer set to 39° C. Variations in temperature of the media occurred due to day-to-day fluctuations in temperature in the laboratory. However, the actual temperature of the media for each replicate during the experiment was measured using a type-T (copper/constantan) thermocouple and an electronic thermometer (model 51 II, Fluke Corporation, Everett, Wash. USA).
After the experimental run, the oocyte was released from the holding pipette on the micromanipulator and the temperature of the medium was measured such that the thermocouple was visible in the microscope field of view, ensuring that the temperature was recorded at the exact location of the oocyte. […] The exact time of these transitions was recorded during each replication and was accounted for during the calculations to estimate the permeability parameters. […]

[4] = test system: bovine oocytes; details: 4 or 5.5 mol/L EG in a single step; cited from earlier work
[5] = cited from earlier work; for concentration required to maintain a vitreous state during slow warming: aqueous solution with this compound as the only solute; for total solute required to maintain a vitreous state during cooling and warming: prior analysis
[6] = Differential scanning calorimetry of EG/sucrose/saline solutions (vitreous state during cooling and warming); type: physicochemical; details: for total concentration of the solution necessary to prevent crystallization during warming: cooling 100° C/min, warming 10° C/min; for DSC thermogram during warming: sucrose 0.3 molal with EG
Protocol: This experiment was designed to determine the amount of EG necessary to maintain an ice-free (i.e. vitreous) state during cooling to cryogenic temperatures ([…]; below the glass transition temperature of these solutions) and warming, when the sucrose concentration ranged from 0.1 to 1.1 molal (mol/kg; equivalent to 0.053 to 0.53 molar (mol/L)). In studies of the physical properties of solutions, components of the solutions are usually measured by weight, not volume. […] Furthermore, concentrations are usually reported in weight fractions (weight percent (w/w, or wt %)). These conventions were used in this experiment and references was made to the equivalent molar concentrations when comparing the results to previously published studies.
A Diamond Differential Scanning Calorimeter (DSC; Perkin-Elmer Waltham, Mass., USA) outfitted with an autosampler and CryoFill liquid nitrogen cooling system was employed for the thermal analysis. The solutions were composed of water (5 g) and NaCl (0.0045 g) to which various amounts of sucrose and EG were added. For this experiment, spectrophotometric grade (>99%) EG was utilized. All components were weighed on an analytical balance. Errors between the target and actual weight percent were less than 0.1% in all instances. To test the vitrification properties of the solutions, 5 μl (˜0.0055 grams) were loaded into standard 10 μl aluminum DSC pans (Perkin-Elmer Part # BO14-3015), and the pans were hermetically sealed. Embryo-grade water and HPLC-grade (>99.9% purity) cyclohexane were also run as calibration standards.
Analyses were conducted at a cooling rate of 100° C./min and a warming rate of 10° C./min to be consistent with previous studies. […] Random noise was estimated by determining the standard deviation of the actual signal from the expected value from the polynomial fit. When an apparent crystallization peak followed by a melting peak in the expected temperature range was noted, and the maximum point on the melting peak was beyond three standard deviations from the expected value, it was classified as a thermal event. Only when three independent solutions confirmed the absence of crystallization and melting was the solution classified as having achieved and maintained a vitreous state throughout the cooling and warming procedure.

Structure (SMILES): OCCO [EG, ethylene glycol]
effect on development compared to untreated oocytes ([1]; 6 mol/L EG for 5 minutes): no effect on development
reduction of developmental potential ([1]; 7 mol/L EG, 2-step exposure): 30%
mean blastocyst development rate ([1]; 8 mol/L EG, exposure less than 1 minute, controls ~62%): ~50%
EG concentration causing membrane damage [2]: ≥ 3 mol/L
Lp (hydraulic conductivity) in the presence of EG ([3]; 6.7° C): 0.15 μm/(min·atm)
Lp (hydraulic conductivity) in the presence of EG ([3]; 35.7° C): 1.17 μm/(min·atm)
activation energy for Lp ([3]; Arrhenius plot, 95% CI 13.19 to 15.65): 14.42 kcal/mol
activation energy for Ps ([3]; Arrhenius plot, 95% CI 19.49 to 22.91): 21.20 kcal/mol
effect on developmental potential [4]: significant reduction
concentration required to maintain a vitreous state during slow warming [5]: ~59 wt %
EG concentration necessary to maintain a vitreous state ([5]; cooling and warming at the DSC rates (100 and 10° C/min)): 59 wt %
EG concentration that should maintain a vitreous state ([5]; warming rate on the order of 1×10^3° C/min): 50 wt %
EG concentration that should maintain a vitreous state ([5]; warming rate on the order of 1×10^4° C/min): 48 wt %

total concentration of the solution necessary to prevent crystallization during warming ([6]; 0.1 mol/kg sucrose with EG in saline): 59 wt %
total concentration of the solution necessary to prevent crystallization during warming ([6]; 0.3 mol/kg sucrose with EG in saline): 59 wt %
total concentration of the solution necessary to prevent crystallization during warming ([6]; 0.5 mol/kg sucrose with EG in saline): 59 wt %
total concentration of the solution necessary to prevent crystallization during warming ([6]; 0.7 mol/kg sucrose with EG in saline): 60 wt %
total concentration of the solution necessary to prevent crystallization during warming ([6]; 0.9 mol/kg sucrose with EG in saline): 61 wt %
total concentration of the solution necessary to prevent crystallization during warming ([6]; 1.1 mol/kg sucrose with EG in saline): 61 wt %
DSC thermogram during warming ([6]; total solute 55% weight): crystallization and melting peaks
Structure (SMILES): OC[C@H]1O[C@@](CO)(O[C@H]2O[C@H](CO)[C@@H](O)[C@H](O)[C@H]2O)[C@@H](O)[C@@H]1O [sucrose]
DSC thermogram during warming ([6]; total solute 59 weight %): no evidence of crystallization and melting
concentration required to maintain a vitreous state during slow warming [5]: > 70 wt %
total solute required to maintain a vitreous state during cooling and warming ([5]; sucrose 0 mol/kg with EG): 59 wt %
total solute required to maintain a vitreous state during cooling and warming ([5]; sucrose 0.1 mol/kg with EG): 60 wt %
total solute required to maintain a vitreous state during cooling and warming ([5]; sucrose 0.5 mol/kg with EG): 61 wt %
total solute required to maintain a vitreous state during cooling and warming ([5]; sucrose 1.0 mol/kg with EG): 65 wt %
